Laboratory results: article PMC6804135, “Comparative Study of Aryl O-, C-, and S-Mannopyranosides as Potential Adhesion Inhibitors toward Uropathogenic E. coli FimH” (Molecules, 2019)
Read-outs that look alike come from different tables or passages of the source.

Tests used:
E. coli FimH [1] = biological target: T1, E. coli FimH (Escherichia coli, UniProt Q1R2J4); design: The FimH residues 1-158 were isolated from the E. coli strain UTI89; made in house; settings: read-out: Kd (SPR), cited from earlier work
E. coli FimH [2] = biological target: T1, E. coli FimH; assay: SPR solution affinity (competition) of ligands for FimH on immobilized 6-aminohexyl α-D-mannopyranoside; assay type: binding; design: The FimH residues 1-158 were isolated from the E. coli strain UTI89; made in house; settings: for Relative Potency: relative to MeαMan (1) = 1; for ΔG°: from SPR Kd
Source text: To this end, we first immobilized 6-aminohexyl α-D-mannopyranoside (4) on the CM5 gold chip using the conventional carbodiimide method to which we allowed FimH to bind with and without our competitive inhibitors (see sensorgram of 4 in the SI). The equilibrium dissociation constant (Kd) of the interaction was then normalized, the data sets are illustrated in Figure 5 and values given in Table 1 (see experimental details). This modification from the previous protocol using 8-aminooctyl α-D-mannoside was found much more practical and reliable given its very high affinity to FimH which made the gold chip regeneration from sample to sample too complicated (very slow koff).
SPR Solution Affinity of Ligands for the E. coli FimH Adhesin
Second, the equilibrium dissociation constants (KD) of FimH against the compounds of interest were determined by measuring the amount of free FimH in a series of concentrations of the compounds of interest at a constant concentration of FimH (close to the Kd of FimH: 6-aminohexyl α-D-mannopyranoside) after equilibrium in solution. A concentration series of the ligand of interest (65536 to 0.5 nM in running buffer, 2-fold dilutions) was equilibrated overnight with analyte FimH (40 nM) and then injected over the previous ligand 6-aminohexyl α-D-mannopyranoside-immobilized surface (300 s association time; 300 s dissociation time; 30 μL/min flow rate; 25 °C temperature; running buffer: 5% DMSO, PBS pH 7.45, 3 mM EDTA supplemented with 0.05% Tween-20; regeneration: 30 s of 10 mM Glycine pH 1.5) and the response was single-referenced by subtracting the reference channel and solvent corrected with a DMSO calibration curve. Since equilibrium could not be reached during injection, the responses (free [FimH], Y-axis) at the end of the injections were normalized with the response from FimH only ([compound of interest] = 0) and then plotted over the compounds of interest concentrations (X-axis).

E. coli FimH [3] = biological target: T1, E. coli FimH; assay: SPR kinetic analysis of FimH against immobilized 6-aminohexyl α-D-mannopyranoside (4); assay type: binding; design: The FimH residues 1-158 were isolated from the E. coli strain UTI89; made in house; settings: for Kd: KD = koff/kon
Description: First, the equilibrium dissociation constant (KD) of FimH against immobilized 6-aminohexyl α-D-mannopyranoside (4) was determined. The ligand 6-aminohexyl α-D-mannopyranoside (10 mM in H2O) was immobilized via standard amine carbodiimide coupling chemistry (and blocking with ethanolamine as per the manufacturer’s procedure) to obtain 364 response units (RU) (see sensorgram in SI). The reference channel was treated similarly without ligand. A concentration series of the analyte FimH (1024 to 8 nM in running buffer, 2-fold dilutions) was then injected over the surface (700 s association time; 1200 s dissociation time; 30 μL/min flow rate; 25 °C temperature; running buffer: PBS pH 7.45, 3 mM EDTA supplemented with 0.005% Tween-20; regeneration: 30 s of 10 mM Glycine pH 1.5) and the response was double-referenced by subtracting the reference channel and the response with no FimH (running buffer only). Since equilibrium could not be reached during injection, KD was obtained from the extracted kinetic rate constants (KD = koff / kon) from a non-linear globally fitted 1:1 Langmuir binding isotherm containing a mass transfer constant (tc) and locally fitted refractive index constant (RI) (Biacore T200 evaluation software v1.0, GE Healthcare Life Sciences) of the obtained sensorgrams.

E. coli FimH [4] = biological target: T1, E. coli FimH; assay: Previously reported SPR Kd against FimH; assay type: binding; design: The FimH residues 1-158 were isolated from the E. coli strain UTI89; made in house; settings: 5 versus 7; from Kd values of ref 18
E. coli FimH [5] = biological target: T1, E. coli FimH; design: The FimH residues 1-158 were isolated from the E. coli strain UTI89; made in house; settings: read-out: IC50 (SPR); cited from earlier work
E. coli FimH [6] = biological target: T1, E. coli FimH; settings: from IC50 values of ref 20

Structure (SMILES) | Kd (E. coli FimH [2]) | Relative Potency (E. coli FimH [2]) | ΔG° (E. coli FimH [2]) | other results
OC[C@H]1O[C@H](OCC#Cc2ccc(-c3ccccc3)cc2)[C@@H](O)[C@@H](O)[C@@H]1O [Compound 7] | – | – | – | Kd (E. coli FimH [1]): 405 nM
OCC1OC(SCC=Cc2ccc(-c3ccccc3)cc2)C(O)C(O)C1O [Compound 12, (2E)-3-(1,1’-biphenyl-2-propen-1-yl) 1-thio-α-D-mannopyranoside] | 94.4 ± 6.2 nM | 5 | – | difference in respective Kds between 5 and 12 (E. coli FimH [2]; O-linked 5 versus S-linked 12): about 5 fold
NCCCCCCO[C@H]1O[C@H](CO)[C@@H](O)[C@H](O)[C@@H]1O [Compound 4, 6-aminohexyl α-D-mannopyranoside] | – | – | – | Kd (E. coli FimH [3]; KD, fitted constant): 38.6 nM; Kd (E. coli FimH [3]; Kd, immobilized ligand 4, FimH as analyte, 25 °C, PBS pH 7.45): 38.58 ± 0.11 nM; dissociation rate constant (koff) (E. coli FimH [3]; fitted constant (dissociation rate), 1:1 Langmuir with mass transfer): 2,06E-04 1/s; kon (E. coli FimH [3]; read-out: ka): 5340 M⁻¹ s⁻¹; Relative Potency (E. coli FimH [3]; relative to MeαMan (1) = 1, immobilized ligand 4): 12
OCC1OC(OCC=Cc2ccc(-c3ccccc3)cc2)C(O)C(O)C1O (stereo not shown) [Compound 5] | 19.9 ± 1.22 nM | 24 | – | fold better Kd than 7 (E. coli FimH [4]): 135 fold; Kd (E. coli FimH [1]): 3 nM
O=[N+]([O-])c1ccc(O[C@H]2O[C@H](CO)[C@@H](O)[C@H](O)[C@@H]2O)cc1 [PNPαMan (2), para-nitrophenyl α-D-mannopyranoside] | 4.21 ± 0.72 nM | 113 | -11.42 kcal/mol | –
CCCCCCCO[C@H]1O[C@H](CO)[C@@H](O)[C@H](O)[C@@H]1O [HeptylαMan (3), Heptyl α-D-mannopyranoside] | 2.37 ± 0.5 nM | 200 | -11.76 kcal/mol | IC50 (E. coli FimH [5]): 160 nM; Kd (E. coli FimH [1]; reported value for the golden standard): 5 nM
CCCCCCCS[C@H]1O[C@H](CO)[C@@H](O)[C@H](O)[C@@H]1O [S-linked heptyl α-D-mannopyranoside] | – | – | – | difference between O- and S-linked heptyl α-D-mannopyranosides (E. coli FimH [6]): 3.4 fold; IC50 (E. coli FimH [5]): 547 nM
CO[C@H]1O[C@H](CO)[C@@H](O)[C@H](O)[C@@H]1O [MeαMan (1), Methyl α-D-mannopyranoside] | 475 ± 5.7 nM | 1 | -8.62 kcal/mol | –
OCC1OC(CC=Cc2ccc(-c3ccccc3)cc2)C(O)C(O)C1O (stereo not shown) [Compound 6] | 11.4 ± 0.63 nM | 42 | – | –
